Some targets named below: Vasopressin V1a receptor (Homo sapiens, UniProt P37288); Melanocortin receptor 4 (Homo sapiens, UniProt P32245); D(3) dopamine receptor (Homo sapiens, UniProt P35462).
Assay [1] addresses T1, Alpha-2A adrenergic receptor (Homo sapiens, UniProt P08913).
T1 sequence (P08913 whole entry): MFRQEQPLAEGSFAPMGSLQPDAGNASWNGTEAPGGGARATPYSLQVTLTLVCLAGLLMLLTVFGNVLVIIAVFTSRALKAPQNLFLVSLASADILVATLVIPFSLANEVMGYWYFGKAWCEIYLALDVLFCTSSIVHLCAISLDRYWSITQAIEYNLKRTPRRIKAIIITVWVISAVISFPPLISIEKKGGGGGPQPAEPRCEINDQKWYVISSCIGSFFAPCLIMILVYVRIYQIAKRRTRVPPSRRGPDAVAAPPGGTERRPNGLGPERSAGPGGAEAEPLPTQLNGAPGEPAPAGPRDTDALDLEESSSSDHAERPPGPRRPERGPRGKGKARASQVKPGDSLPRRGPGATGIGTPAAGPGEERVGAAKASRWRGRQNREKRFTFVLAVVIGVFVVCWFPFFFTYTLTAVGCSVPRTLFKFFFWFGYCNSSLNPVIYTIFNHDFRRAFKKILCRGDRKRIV
Type of assay: functional, cell-based.

Assay [2] addresses Beta-2 adrenergic receptor (Homo sapiens, UniProt P07550).
Assay [3] deals with T2, Type-1 angiotensin II receptor (Homo sapiens, UniProt P30556).
T2 sequence (P30556 whole entry): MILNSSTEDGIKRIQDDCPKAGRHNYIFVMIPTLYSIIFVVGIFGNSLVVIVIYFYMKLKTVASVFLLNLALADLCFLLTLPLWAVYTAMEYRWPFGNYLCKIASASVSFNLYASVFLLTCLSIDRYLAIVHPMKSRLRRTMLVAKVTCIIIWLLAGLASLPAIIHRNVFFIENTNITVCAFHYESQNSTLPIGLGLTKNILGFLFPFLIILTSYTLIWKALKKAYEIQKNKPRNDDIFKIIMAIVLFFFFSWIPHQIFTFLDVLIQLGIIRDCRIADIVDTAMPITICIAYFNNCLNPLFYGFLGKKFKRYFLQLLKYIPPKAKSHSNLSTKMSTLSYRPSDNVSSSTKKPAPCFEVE

Assay [4] has as its target Voltage-dependent L-type calcium channel subunit alpha-1C (Rattus norvegicus, UniProt P22002). Format: functional.
The target of another assay is Cannabinoid receptor 1 (Homo sapiens, UniProt P21554). Format: functional, cell-based.
Another assay concerns the target D(1A) dopamine receptor (Homo sapiens, UniProt P21728). Type of assay: functional, cell-based.
The target in assay [5] is T3, Gamma-aminobutyric acid receptor subunit alpha-1 (Rattus norvegicus, UniProt P62813).
T3 sequence (P62813 whole entry): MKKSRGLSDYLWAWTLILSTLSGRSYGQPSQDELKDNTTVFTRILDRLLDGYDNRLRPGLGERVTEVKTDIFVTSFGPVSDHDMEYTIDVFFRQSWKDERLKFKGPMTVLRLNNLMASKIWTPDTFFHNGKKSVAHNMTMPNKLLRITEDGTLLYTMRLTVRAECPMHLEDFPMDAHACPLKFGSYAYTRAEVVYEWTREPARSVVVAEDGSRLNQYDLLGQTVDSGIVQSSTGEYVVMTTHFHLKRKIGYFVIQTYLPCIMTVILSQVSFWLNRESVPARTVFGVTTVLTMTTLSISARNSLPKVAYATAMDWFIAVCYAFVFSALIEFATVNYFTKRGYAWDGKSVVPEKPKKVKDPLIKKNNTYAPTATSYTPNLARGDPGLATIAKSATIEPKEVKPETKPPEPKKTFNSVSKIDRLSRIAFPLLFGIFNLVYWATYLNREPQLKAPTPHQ
Assay [6] has as its target T3, Gamma-aminobutyric acid receptor subunit alpha-1. Format: functional.
Assay [7] addresses Growth hormone secretagogue receptor type 1 (Homo sapiens, UniProt Q92847).
In assay [8] the target is T4, 5-hydroxytryptamine receptor 3A (Homo sapiens, UniProt P46098).
T4 sequence (P46098 whole entry): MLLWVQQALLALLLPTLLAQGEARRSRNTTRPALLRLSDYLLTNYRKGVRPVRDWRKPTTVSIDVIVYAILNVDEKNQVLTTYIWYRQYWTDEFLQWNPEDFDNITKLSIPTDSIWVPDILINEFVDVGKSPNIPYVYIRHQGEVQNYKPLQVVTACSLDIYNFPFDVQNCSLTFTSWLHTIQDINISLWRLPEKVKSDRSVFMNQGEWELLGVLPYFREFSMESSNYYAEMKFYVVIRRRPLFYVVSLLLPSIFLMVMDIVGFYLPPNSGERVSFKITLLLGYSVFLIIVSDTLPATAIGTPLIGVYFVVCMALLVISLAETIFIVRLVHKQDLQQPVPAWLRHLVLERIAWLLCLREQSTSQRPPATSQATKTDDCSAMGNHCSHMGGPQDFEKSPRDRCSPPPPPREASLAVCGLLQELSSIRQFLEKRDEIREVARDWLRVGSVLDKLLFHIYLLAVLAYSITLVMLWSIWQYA
Format: functional.

Assay [9] deals with Voltage-gated inwardly rectifying potassium channel KCNH2 (Homo sapiens, UniProt Q12809). Type of assay: functional. The conditions noted are these: read-out: AC50.
The target of assay [10] is Kappa-type opioid receptor (Homo sapiens, UniProt P41145).
Chain of Kappa-type opioid receptor (P41145 whole entry): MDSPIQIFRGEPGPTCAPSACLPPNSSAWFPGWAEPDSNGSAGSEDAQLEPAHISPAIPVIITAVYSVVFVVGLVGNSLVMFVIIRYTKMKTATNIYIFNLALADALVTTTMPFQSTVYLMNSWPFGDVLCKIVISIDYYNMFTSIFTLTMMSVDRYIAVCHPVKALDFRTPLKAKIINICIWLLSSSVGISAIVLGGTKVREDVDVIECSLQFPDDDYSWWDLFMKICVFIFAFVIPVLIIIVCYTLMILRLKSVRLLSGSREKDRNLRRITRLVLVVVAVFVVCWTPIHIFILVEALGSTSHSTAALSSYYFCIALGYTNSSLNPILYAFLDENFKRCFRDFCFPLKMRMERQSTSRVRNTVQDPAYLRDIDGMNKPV
For assay [11], the target named is Sodium-dependent dopamine transporter (Homo sapiens, UniProt Q01959).
For assay [12], the target named is T5, Muscarinic acetylcholine receptor M1 (Homo sapiens, UniProt P11229).
T5 sequence (P11229 whole entry): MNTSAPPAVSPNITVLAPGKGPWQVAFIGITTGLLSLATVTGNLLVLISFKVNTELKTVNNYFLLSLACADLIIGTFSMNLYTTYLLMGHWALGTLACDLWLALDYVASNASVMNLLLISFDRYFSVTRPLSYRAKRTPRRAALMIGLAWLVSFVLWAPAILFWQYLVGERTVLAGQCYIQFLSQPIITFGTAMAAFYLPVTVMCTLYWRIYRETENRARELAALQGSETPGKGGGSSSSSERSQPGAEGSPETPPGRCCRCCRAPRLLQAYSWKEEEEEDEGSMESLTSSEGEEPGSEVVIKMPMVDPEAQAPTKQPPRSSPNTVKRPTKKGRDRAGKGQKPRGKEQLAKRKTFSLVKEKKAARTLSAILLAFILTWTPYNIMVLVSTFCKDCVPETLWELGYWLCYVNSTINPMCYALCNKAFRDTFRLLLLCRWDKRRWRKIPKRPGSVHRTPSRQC
Format: functional.

A value given as a limit tells only on which side of the number the result lay.

In general, AC50 refers to the concentration at which the activity in the assay is half-maximal.
Further: assay procedure not described here.

Chain of Melanocortin receptor 4 (P32245 whole entry): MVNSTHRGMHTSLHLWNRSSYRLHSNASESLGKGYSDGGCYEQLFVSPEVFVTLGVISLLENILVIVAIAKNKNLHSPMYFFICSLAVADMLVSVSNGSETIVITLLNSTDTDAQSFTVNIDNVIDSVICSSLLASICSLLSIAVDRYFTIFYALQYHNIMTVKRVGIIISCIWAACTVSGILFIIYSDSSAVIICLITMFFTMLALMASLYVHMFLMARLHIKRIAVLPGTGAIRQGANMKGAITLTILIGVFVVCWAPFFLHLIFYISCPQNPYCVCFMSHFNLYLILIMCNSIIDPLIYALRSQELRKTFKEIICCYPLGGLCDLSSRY
Chain of D(1A) dopamine receptor (P21728 whole entry): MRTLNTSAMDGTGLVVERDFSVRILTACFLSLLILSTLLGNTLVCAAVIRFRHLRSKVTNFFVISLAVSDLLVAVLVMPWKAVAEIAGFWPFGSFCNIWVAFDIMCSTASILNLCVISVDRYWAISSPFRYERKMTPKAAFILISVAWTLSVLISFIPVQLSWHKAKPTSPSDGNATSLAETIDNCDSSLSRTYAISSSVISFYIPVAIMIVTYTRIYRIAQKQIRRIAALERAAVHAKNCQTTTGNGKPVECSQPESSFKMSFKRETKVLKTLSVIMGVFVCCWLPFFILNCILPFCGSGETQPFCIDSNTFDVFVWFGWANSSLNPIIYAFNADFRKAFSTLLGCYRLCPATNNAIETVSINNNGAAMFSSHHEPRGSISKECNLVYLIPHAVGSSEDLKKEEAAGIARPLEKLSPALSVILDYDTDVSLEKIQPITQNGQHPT
Chain of Beta-2 adrenergic receptor (P07550 whole entry): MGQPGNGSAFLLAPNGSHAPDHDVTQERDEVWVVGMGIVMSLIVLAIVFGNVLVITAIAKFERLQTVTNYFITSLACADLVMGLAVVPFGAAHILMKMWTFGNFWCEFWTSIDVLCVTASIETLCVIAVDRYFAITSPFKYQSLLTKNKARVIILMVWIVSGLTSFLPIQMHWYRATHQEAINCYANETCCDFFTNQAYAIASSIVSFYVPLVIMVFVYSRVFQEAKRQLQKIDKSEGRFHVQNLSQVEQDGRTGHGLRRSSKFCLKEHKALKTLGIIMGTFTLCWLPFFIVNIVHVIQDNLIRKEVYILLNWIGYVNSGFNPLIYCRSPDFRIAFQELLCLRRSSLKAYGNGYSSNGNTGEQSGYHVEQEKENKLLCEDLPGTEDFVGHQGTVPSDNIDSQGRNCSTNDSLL
Chain of Voltage-dependent L-type calcium channel subunit alpha-1C (P22002 whole entry): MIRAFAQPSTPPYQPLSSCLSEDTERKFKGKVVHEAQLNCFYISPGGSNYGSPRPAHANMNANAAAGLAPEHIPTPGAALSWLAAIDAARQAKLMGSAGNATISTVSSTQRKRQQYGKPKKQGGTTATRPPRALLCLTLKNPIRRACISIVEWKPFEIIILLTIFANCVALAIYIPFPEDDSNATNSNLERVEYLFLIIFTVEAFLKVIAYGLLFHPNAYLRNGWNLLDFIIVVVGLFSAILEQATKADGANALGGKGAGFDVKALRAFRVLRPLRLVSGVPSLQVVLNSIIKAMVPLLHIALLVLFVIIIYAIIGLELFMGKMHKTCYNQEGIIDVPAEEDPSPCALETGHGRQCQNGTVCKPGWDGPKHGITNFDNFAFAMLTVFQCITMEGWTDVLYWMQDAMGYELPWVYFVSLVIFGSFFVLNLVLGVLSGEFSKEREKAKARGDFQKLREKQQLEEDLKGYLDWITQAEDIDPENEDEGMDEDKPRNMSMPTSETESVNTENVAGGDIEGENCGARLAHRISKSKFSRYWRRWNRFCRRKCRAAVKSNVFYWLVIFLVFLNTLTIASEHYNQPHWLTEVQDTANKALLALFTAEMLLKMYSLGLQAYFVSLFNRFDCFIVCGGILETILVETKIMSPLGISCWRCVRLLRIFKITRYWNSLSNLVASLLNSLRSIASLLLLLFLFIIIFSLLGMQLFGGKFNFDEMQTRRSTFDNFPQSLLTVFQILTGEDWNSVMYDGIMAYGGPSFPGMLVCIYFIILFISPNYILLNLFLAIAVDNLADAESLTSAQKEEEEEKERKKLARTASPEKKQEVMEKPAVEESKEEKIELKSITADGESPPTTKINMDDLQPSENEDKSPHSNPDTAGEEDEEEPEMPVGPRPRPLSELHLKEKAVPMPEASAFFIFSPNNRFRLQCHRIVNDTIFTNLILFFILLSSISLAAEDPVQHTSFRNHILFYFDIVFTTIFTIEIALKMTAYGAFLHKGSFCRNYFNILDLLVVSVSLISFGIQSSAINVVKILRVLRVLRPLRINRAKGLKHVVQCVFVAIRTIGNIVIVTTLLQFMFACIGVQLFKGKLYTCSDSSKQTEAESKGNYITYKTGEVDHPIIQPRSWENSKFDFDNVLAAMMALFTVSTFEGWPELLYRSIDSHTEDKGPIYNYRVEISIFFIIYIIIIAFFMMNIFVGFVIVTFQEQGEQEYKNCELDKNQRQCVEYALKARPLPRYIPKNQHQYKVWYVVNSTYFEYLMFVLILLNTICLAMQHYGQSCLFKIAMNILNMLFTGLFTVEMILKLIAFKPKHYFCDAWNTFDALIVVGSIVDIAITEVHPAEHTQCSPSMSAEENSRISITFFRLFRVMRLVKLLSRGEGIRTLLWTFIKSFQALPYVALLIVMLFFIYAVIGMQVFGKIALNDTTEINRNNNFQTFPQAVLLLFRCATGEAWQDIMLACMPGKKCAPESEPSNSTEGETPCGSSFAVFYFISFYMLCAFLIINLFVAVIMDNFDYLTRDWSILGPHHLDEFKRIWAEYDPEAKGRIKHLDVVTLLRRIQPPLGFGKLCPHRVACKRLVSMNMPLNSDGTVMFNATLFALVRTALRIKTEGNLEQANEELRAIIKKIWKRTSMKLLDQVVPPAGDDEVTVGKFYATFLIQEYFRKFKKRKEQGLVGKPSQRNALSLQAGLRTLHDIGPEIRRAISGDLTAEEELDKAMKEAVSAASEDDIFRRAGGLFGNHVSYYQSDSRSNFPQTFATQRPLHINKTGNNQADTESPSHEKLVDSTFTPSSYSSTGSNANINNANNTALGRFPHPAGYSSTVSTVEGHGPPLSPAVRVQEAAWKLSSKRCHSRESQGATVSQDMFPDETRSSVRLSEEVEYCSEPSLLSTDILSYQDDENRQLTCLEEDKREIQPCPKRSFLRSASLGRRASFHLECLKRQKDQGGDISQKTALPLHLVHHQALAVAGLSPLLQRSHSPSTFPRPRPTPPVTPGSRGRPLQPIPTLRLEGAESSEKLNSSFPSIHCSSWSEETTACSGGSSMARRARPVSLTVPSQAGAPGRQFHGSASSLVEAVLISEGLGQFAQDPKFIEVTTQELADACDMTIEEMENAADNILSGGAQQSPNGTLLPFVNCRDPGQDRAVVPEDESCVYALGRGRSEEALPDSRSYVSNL
Chain of D(3) dopamine receptor (P35462 whole entry): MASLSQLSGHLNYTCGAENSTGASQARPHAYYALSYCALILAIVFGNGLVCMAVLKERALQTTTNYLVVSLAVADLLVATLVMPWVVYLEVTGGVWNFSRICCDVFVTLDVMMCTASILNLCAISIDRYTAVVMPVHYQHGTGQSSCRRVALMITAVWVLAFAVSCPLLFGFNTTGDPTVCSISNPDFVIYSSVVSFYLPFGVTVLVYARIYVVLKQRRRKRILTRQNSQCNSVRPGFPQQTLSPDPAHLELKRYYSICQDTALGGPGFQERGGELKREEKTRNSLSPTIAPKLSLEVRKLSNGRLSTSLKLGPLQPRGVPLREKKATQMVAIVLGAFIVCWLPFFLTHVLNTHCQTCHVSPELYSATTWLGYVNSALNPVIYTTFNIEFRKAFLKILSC
Chain of Vasopressin V1a receptor (P37288 whole entry): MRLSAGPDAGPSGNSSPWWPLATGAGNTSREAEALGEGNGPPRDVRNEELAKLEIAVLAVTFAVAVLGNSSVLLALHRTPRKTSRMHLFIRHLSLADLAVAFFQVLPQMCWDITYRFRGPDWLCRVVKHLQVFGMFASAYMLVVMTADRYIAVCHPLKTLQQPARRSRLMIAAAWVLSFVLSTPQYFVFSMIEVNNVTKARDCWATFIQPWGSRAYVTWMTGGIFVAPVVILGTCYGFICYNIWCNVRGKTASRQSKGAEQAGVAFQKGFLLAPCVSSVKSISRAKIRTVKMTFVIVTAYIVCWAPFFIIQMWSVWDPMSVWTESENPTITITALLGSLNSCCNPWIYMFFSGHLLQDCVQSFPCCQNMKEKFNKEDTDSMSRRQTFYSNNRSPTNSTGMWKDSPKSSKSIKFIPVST

On to `CC(C)CN(C[C@@H](O)[C@H](Cc1ccccc1)NC(=O)O[C@H]1CCOC1)S(=O)(=O)c1ccc(N)cc1`, for which the concentration at half-maximal activity (AC50) in assay [1] was above 10 µM; in [2], above 10 µM; in [3], above 10 µM; at Vasopressin V1a receptor, above 30 µM; in assay [4], above 10 µM; at Cannabinoid receptor 1, above 30 µM. Further, the concentration at half-maximal activity (AC50) was above 10 µM at D(1A) dopamine receptor; above 10 µM in assay [5]; above 10 µM in assay [6]; above 30 µM in [7]; above 30 µM in assay [8]; above 30 µM in assay [9]. Besides, the AC50 on Melanocortin receptor 4 was above 30 µM; in assay [10], above 10 µM; in assay [11], above 10 µM; at D(3) dopamine receptor, above 30 µM.
Consider `OCC(O)COc1ccc(Cl)cc1` (stereo unspecified), for which the concentration at half-maximal activity (AC50) (in assay [1]; in assay [2]; in [3]; on Vasopressin V1a receptor; in assay [4]; in assay [12]) was above 10 µM each time. For the same molecule, the AC50 on D(1A) dopamine receptor is above 10 µM; in assay [5] it was above 10 µM; in assay [6], above 10 µM; in assay [7] it was above 10 µM; in assay [8] it was above 30 µM; in [9], above 30 µM. The AC50 on Melanocortin receptor 4 was above 10 µM; in assay [10] it was above 10 µM; in assay [11], above 10 µM; at D(3) dopamine receptor, above 30 µM.
As to `O=C(O[C@H]1C[N+]2(CCCOc3ccccc3)CCC1CC2)C(O)(c1cccs1)c1cccs1` [ACLIDINIUM BROMIDE], the AC50 is above 10 µM in assay [2]; above 30 µM in assay [3]; above 10 µM at Vasopressin V1a receptor; above 10 µM in assay [4]; 0.018 µM in assay [12]; above 10 µM in assay [5]. The concentration at half-maximal activity (AC50) was above 10 µM in assay [6]; above 30 µM in [7]; above 30 µM in assay [8]; 0.43 µM in assay [9]; above 30 µM on Melanocortin receptor 4; 13.9 µM in assay [10]. The concentration at half-maximal activity (AC50) (in [11]; on D(3) dopamine receptor) was above 10 µM each time.
Turning to `Cc1nnc2n1-c1ccc(Cl)cc1C(c1ccccc1)=NC2` [ALPRAZOLAM], the AC50 in assay [1] is above 10 µM; in [2], above 10 µM; in assay [3], above 30 µM; at Vasopressin V1a receptor, above 10 µM; in assay [4], above 10 µM; on Cannabinoid receptor 1, above 30 µM. The AC50 was above 10 µM on D(1A) dopamine receptor; above 10 µM in [5]; 0.0042 µM in assay [6]; above 30 µM in assay [7]; above 30 µM in assay [8]; above 30 µM in [9]. Besides, the concentration at half-maximal activity (AC50) is above 30 µM on Melanocortin receptor 4, 7.48 µM in [10], above 10 µM in assay [11] and above 10 µM at D(3) dopamine receptor.
Turning to `CC(=O)OCC1=C(C(=O)O)N2C(=O)[C@@H](NC(=O)CSc3ccncc3)[C@H]2SC1` [CEPHAPIRIN], the concentration at half-maximal activity (AC50) (in assay [1]; in [2]; in assay [3]; at Vasopressin V1a receptor; in assay [4]; in assay [12]) was above 10 µM throughout. The half-maximal activity concentration (AC50) on D(1A) dopamine receptor was above 10 µM; in assay [5], above 10 µM; in [6], above 10 µM; in [7] it was above 10 µM; in [8] it was above 30 µM; in assay [9] it was above 30 µM. Besides, the concentration at half-maximal activity (AC50) on Melanocortin receptor 4 is above 10 µM; in [10] it was above 10 µM; in [11] it was above 10 µM; at D(3) dopamine receptor, above 30 µM.
`Nc1nc(Cl)nc2c1ncn2[C@@H]1O[C@H](CO)[C@@H](O)[C@@H]1F` [CLOFARABINE]: the AC50 in assay [1] was above 10 µM; in assay [2], above 30 µM; in assay [3], above 30 µM; at Vasopressin V1a receptor, above 30 µM; in assay [4], above 30 µM; in [12], above 30 µM. The AC50 on D(1A) dopamine receptor was above 30 µM; in assay [5], above 10 µM; in [6] it was above 10 µM; in [7], above 30 µM; in assay [8] it was above 30 µM; in assay [9], above 30 µM. Further, the AC50 was above 30 µM at Melanocortin receptor 4, above 10 µM in assay [10], above 30 µM in assay [11] and above 30 µM on D(3) dopamine receptor.
With `O=C1CN=C(c2ccccc2Cl)c2cc([N+](=O)[O-])ccc2N1` [CLONAZEPAM], the AC50 is above 10 µM in assay [1]; above 10 µM in [2]; above 30 µM in [3]; above 10 µM on Vasopressin V1a receptor; above 10 µM in [4]; above 30 µM on Cannabinoid receptor 1. Further, the half-maximal activity concentration (AC50) is above 10 µM on D(1A) dopamine receptor; above 10 µM in [5]; 0.0025 µM in [6]; above 30 µM in assay [7]; above 30 µM in assay [8]; above 30 µM in assay [9]. For the same molecule, the half-maximal activity concentration (AC50) on Melanocortin receptor 4 was above 30 µM; in assay [10], above 10 µM; in [11], above 10 µM; at D(3) dopamine receptor, above 10 µM.
On to `CN(C)CCOC(=O)C(c1ccccc1)C1(O)CCCC1` (stereo unspecified) [CYCLOPENTOLATE], for which the AC50 was above 10 µM in [1]; above 10 µM in assay [2]; above 10 µM in [3]; above 10 µM on Vasopressin V1a receptor; above 10 µM in assay [4]; 0.069 µM in assay [12]. Besides, the AC50 is above 10 µM at D(1A) dopamine receptor; above 10 µM in [5]; above 10 µM in [6]; above 10 µM in [7]; above 30 µM in assay [8]; above 30 µM in [9]. The concentration at half-maximal activity (AC50) at Melanocortin receptor 4 is above 10 µM; in assay [10], above 10 µM; in [11] it was above 30 µM; at D(3) dopamine receptor it was above 30 µM.
On to `COc1ccc2c3c1O[C@H]1C(=O)CC[C@H]4[C@@H](C2)N(C)CC[C@]314` [HYDROCODONE], for which the concentration at half-maximal activity (AC50) in [1] was above 10 µM; in assay [2], above 10 µM; in [3] it was above 30 µM; at Vasopressin V1a receptor, above 10 µM; in assay [4] it was above 10 µM; in assay [12], above 10 µM. Besides, the concentration at half-maximal activity (AC50) at D(1A) dopamine receptor is above 10 µM; in assay [5], above 10 µM; in assay [6] it was above 10 µM; in [7] it was above 30 µM; in [8] it was above 30 µM; in [9], above 30 µM. Further, the concentration at half-maximal activity (AC50) is above 30 µM at Melanocortin receptor 4, above 10 µM in [11] and above 10 µM on D(3) dopamine receptor.

(Values after ChEMBL document CHEMBL5291721, “A preclinical secondary pharmacology resource illuminates target-adverse drug reaction associations of marketed drugs” (Nat Commun, 2023).)
